Results taken from patent publication US9999221B2, “Herbicide combination containing pelargonic acid and defined ALS inhibitors” (BAYER CROPSCIENCE AKTIENGESELLSCHAFT, priority 2013, dated 2018).

Assays:
Assay in all cases: Post-emergence test, % damage
Assay type in all cases: in vivo
Conditions in all cases: after 48 days
Festuca ovina = system: Festuca ovina
Source text: (§1) After 48 days, the degree of damage to the plants is rated in % damage in comparison to the development of the untreated control.

Poa annua = system: Poa annua
Source text: as §1

Taraxacum officinale = system: Taraxacum officinale
Source text: as §1

Plantago major = system: Plantago major
Source text: as §1

Chenopodium album = system: Chenopodium album
Source text: as §1

Trifolium repens = system: Trifolium repens
Source text: as §1

[1] = Iodosulfuron-methyl 1 g of active compound/ha
[2] = Iodosulfuron-methyl 1.25 g of active compound/ha
[3] = Iodosulfuron-methyl 2.5 g of active compound/ha
[4] = Iodosulfuron-methyl 10 g of active compound/ha
[5] = Pelargonic acid 10000 g of active compound/ha
[6] = Pelargonic acid 20000 g of active compound/ha
[7] = Pelargonic acid 30000 g of active compound/ha

4-iodo-2-[(4-methoxy-6-methyl-1,3,5-triazin-2-yl)carbamoylsulfamoyl]benzoate, sodium salt [Iodosulfuron-methyl]
herbicidal effect [%] (Festuca ovina; [1]): 0% | herbicidal effect [%] (Festuca ovina; [2]): 0% | herbicidal effect [%] (Festuca ovina; [3]): 0% | herbicidal effect [%] (Festuca ovina; [4]): 6.7% | herbicidal effect [%] (Poa annua; [1]): 0% | herbicidal effect [%] (Poa annua; [2]): 0% | herbicidal effect [%] (Poa annua; [3]): 0% | herbicidal effect [%] (Poa annua; [4]): 0% | herbicidal effect [%] (Taraxacum officinale; [1]): 18.3% | herbicidal effect [%] (Taraxacum officinale; [2]): 18% | herbicidal effect [%] (Taraxacum officinale; [3]): 42% | herbicidal effect [%] (Taraxacum officinale; [4]): 85% | herbicidal effect [%] (Plantago major; [1]): 0% | herbicidal effect [%] (Plantago major; [2]): 3% | herbicidal effect [%] (Plantago major; [3]): 30% | herbicidal effect [%] (Plantago major; [4]): 53.3% | herbicidal effect [%] (Chenopodium album; [1]): 0% | herbicidal effect [%] (Chenopodium album; [2]): 0% | herbicidal effect [%] (Chenopodium album; [3]): 10% | herbicidal effect [%] (Chenopodium album; [4]): 40% | herbicidal effect [%] (Trifolium repens; [1]): 18.3% | herbicidal effect [%] (Trifolium repens; [2]): 32% | herbicidal effect [%] (Trifolium repens; [3]): 45% | herbicidal effect [%] (Trifolium repens; [4]): 80%

CCCCCCCCC(=O)O [Pelargonic acid, nonanoic acid]
herbicidal effect [%] (Festuca ovina; [5]): 0% | herbicidal effect [%] (Festuca ovina; [6]): 0% | herbicidal effect [%] (Festuca ovina; [7]): 6.7% | herbicidal effect [%] (Poa annua; [5]): 0% | herbicidal effect [%] (Poa annua; [6]): 0% | herbicidal effect [%] (Poa annua; [7]): 0% | herbicidal effect [%] (Taraxacum officinale; [5]): 6.7% | herbicidal effect [%] (Taraxacum officinale; [6]): 7% | herbicidal effect [%] (Taraxacum officinale; [7]): 20% | herbicidal effect [%] (Plantago major; [5]): 0% | herbicidal effect [%] (Plantago major; [6]): 0% | herbicidal effect [%] (Plantago major; [7]): 13.3% | herbicidal effect [%] (Chenopodium album; [5]): 0% | herbicidal effect [%] (Chenopodium album; [6]): 10% | herbicidal effect [%] (Chenopodium album; [7]): 20% | herbicidal effect [%] (Trifolium repens; [5]): 0% | herbicidal effect [%] (Trifolium repens; [6]): 0% | herbicidal effect [%] (Trifolium repens; [7]): 3.3%
